Measurements as given in patent publication US8492346B2, “Methods of use of epsilon inhibitor compounds for the attenuation of pain” (KAI Pharmaceuticals, Inc., priority 2007, dated 2013).

System: carrageenan-induced mechanical hyperalgesia
Assay: Carrageenan inflammatory pain model, Randall-Selitto paw-withdrawal test
Format: in vivo, rat
Settings: for Mechanical hyperalgesia (PWT): FIG. 18
Experimental: The nociceptive flexior reflex was quantified on lightly restrained rats by using a Basile Analgesymeter (Randall-Selitto test). Inflammatory hyperlagesia was induced by injection of Carr (1%, 5 uL, i.d.), which was injected unilaterally to the dorsum of the hindpaw one-hour prior to compound administration. The εPKC inhibitor peptide (εV1-2) was injected via systemic routes.
The nociceptive flexior reflex was quantified on lightly restrained rats by using a Basile Analgesymeter (Randall-Selitto test). Inflammatory hyperlagesia was induced by injection of Carr (1%, 5 μL, i.d.), which was injected unilaterally to the dorsum of the hindpaw one-hr prior to compound administration. The εPKC inhibitor peptide (εV1-2) was injected via systemic routes.
The rat carrageenan model has been extensively used to evaluate the response to modulators of inflammatory pain. In the model used for the studies described below, a single 5 microL injection of a 1% solution of carrageenan into the plantar surface of the right hindpaw was used to elicit an inflammatory response resulting in local edema and mechanical hyperalgesia. The mechanical hyperalgesia was quantitated as previously described using measurements of the nociceptive flexion reflex (Randall-Selitto paw-withdrawal test) in response to mechanical painful stimulation at the site of carrageenan injection. […] In the absence of further treatment, the PWT remained stable at ˜55 g for several hours, making it possible to use this model to evaluate the time-course of the response to treatment over the course of at least six hours after the establishment of the disease state.

## Ac-EAVSLKPTGGYGRKKRRQRRR-NH2 [KAI-1678]
25 mcg/kg/hr subcutaneous infusion, contralateral hindlimb, FIG. 24
  Ability to reverse mechanical hyperalgesia in sympathectomized animals: abrogated
25 mcg/kg/hr subcutaneous infusion, contralateral limb, proximal or distal to transection, FIG. 23
  Carrageenan-induced mechanical hyperalgesia after sciatic and saphenous nerve transection: effective at eliminating carrageenan-induced mechanical hyperalgesia when the site of compound administration was proximal, but not distal, to the site of nerve transection
IV infusion, rates as high as 1000 mcg/kg/hr for as long as 5 hours, FIG. 22
  Carrageenan-induced mechanical hyperalgesia: had no effect on carrageenan-induced mechanical hyperalgesia
Intradermal 10 mcg/kg, ipsilateral hindpaw
  Mechanical hyperalgesia (PWT): completely reverse the mechanical hyperalgesia
Intradermal 10 or 100 mcg/kg, contralateral hindpaw
  Mechanical hyperalgesia (PWT): completely reverse the mechanical hyperalgesia
Intradermal 100 mcg/kg, ipsilateral
  Time to complete reversal of mechanical hyperalgesia: ≤ 5 min
Intradermal 100 mcg/kg, ipsilateral hindpaw
  Mechanical hyperalgesia (PWT): increasing the PWT beyond the pre-carrageenan levels
Subcutaneous bolus, contralateral hindlimb, for a short period
  Lowest dose completely reversing mechanical hyperalgesia: 0.1 µg/kg
Subcutaneous bolus, thigh of contralateral hindlimb, FIG. 19
  Pain response (mechanical hyperalgesia): dose-dependent suppression in the pain response
Subcutaneous infusion 250 mcg/kg/hr
  Reversal of pain: rapid and sustained without any recurrence of hyperalgesia
Subcutaneous infusion 25,000 mcg/kg/hr, data not shown
  Effect on mechanical hyperalgesia: comparable to that seen with the 250 mcg/kg/hr infusion
Subcutaneous infusion, first phase approximately one hour, FIG. 21
  Mechanical hyperalgesia, first phase of subcutaneous infusion: rapid and complete reversal of the mechanical hyperalgesia at all doses tested
Subcutaneous infusion, second phase two to three hours after start
  Dose rate completely reversing mechanical hyperalgesia in second phase: ≥ 25 µg/kg/h
